Laboratory results taken from patent publication US12655185B2, “Peptide inhibitors of interleukin-23 and their use to treat inflammatory diseases” (Protagonist Therapeutics, Inc., priority 2016, dated 2026).
Bridge positions count the residues as written; N and C are the ends. Peptide text beside a SMILES is read from it.

Experiments:
[1] = biological target: IL-13 binding to IL-13Ra1 (Homo sapiens, UniProt P35225); test: Binding of IL-13 to IL-13Ra1; conditions: data not shown
[2] = biological target: IL-6 binding to IL-6R (Homo sapiens, UniProt P05231); test: Binding of IL-6 to IL-6R; conditions: data not shown
[3] = biological target: T1, IL-23 binding to human IL-12Rβ1_huFC (Homo sapiens, UniProt P29460+Q9NPF7); test: Human IL23/IL12Rβ1 huFc ELISA; conditions: for blocking of binding of IL-23 to IL-12Rβ1: result in words
T1 sequence (Q9NPF7 20-189): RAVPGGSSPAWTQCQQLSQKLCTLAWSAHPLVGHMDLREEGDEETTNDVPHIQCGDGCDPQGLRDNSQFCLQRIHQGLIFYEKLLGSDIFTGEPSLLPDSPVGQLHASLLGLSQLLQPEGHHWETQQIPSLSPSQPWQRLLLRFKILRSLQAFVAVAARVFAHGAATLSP
T1 sequence (P29460 23-328): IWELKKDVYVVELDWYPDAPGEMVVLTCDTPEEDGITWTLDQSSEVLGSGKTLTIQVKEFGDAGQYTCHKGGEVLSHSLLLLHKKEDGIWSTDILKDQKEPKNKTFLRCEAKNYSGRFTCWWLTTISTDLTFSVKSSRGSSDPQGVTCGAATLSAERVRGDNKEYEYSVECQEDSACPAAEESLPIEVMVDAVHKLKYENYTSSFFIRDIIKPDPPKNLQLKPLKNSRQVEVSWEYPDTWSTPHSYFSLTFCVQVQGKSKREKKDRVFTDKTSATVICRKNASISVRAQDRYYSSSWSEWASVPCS
Experimental: (§1) The ability of Peptide 10 to block binding of IL-23 to IL-12Rβ1 or binding of IL-12 to IL-12Rβ1 was also determined. Human IL-12Rβ1 ELISA assays were performed as follows: an assay plate was coated with 100 ng/well of human IL-12Rβ1_huFC and incubated overnight at 4° C. The wells were washed, blocked, and washed again. Serial dilutions of test peptides and either IL-23 or IL-12 at a fixed concentration corresponding to EC50 values were added to each well, and incubated for 2 hours at room temperature. After the wells were washed, bound IL-23 were detected with goat anti-p40 polyclonal antibodies followed by an HRP conjugated donkey anti-goat IgG, and bound IL-12 were detected with a biotin conjugated anti-p40 monoclonal antibody followed by HRP conjugated streptavidin. Signals were visualized with TMB One Component HRP Membrane Substrate and quenched with 2 M sulfuric acid.

[4] = biological target: T2, IL-12 binding to human IL-12Rβ1_huFC (Homo sapiens, UniProt P29459+P29460); test: Human IL12/IL12Rβ1 huFc ELISA
T2 sequence (P29459 23-219): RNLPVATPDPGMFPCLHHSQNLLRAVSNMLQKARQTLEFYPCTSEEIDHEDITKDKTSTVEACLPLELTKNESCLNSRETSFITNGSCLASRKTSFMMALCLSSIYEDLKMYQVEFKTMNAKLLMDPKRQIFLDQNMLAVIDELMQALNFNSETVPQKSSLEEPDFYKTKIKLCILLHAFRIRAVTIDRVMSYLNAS
T2 sequence (P29460 23-328): T1 sequence (P29460 23-328)
Experimental: as §1

[5] = biological target: T3, IL-23 binding to IL23R_huFC (human IL-23R) (Homo sapiens, UniProt P29460+Q9NPF7); test: IL23-IL23R Competitive Binding ELISA; conditions: inhibition of IL-23/IL-23R binding; IL-23 0.9 nM; class symbols; read-out: IC50 IL23R_huFC
T3 sequence (Q9NPF7 20-189): T1 sequence (Q9NPF7 20-189)
T3 sequence (P29460 23-328): T1 sequence (P29460 23-328)
Experimental: Immulon® 4HBX plate was coated with 200 ng/well of IL23R_huFC and incubated overnight at 4° C. […] Serial dilutions of test peptides and IL-23 at a final concentration of 0.9 nM diluted in PBS were added to each well and incubated for 2 hours at room temperature. After the wells were washed, bound IL-23 was detected by incubation with 50 ng/well of goat anti-p40 polyclonal antibodies (R&D Systems #AF309) diluted in PBS for 1 hour at room temperature. The wells were again washed four times with PBST. […] The plate was finally washed as above. Signals were visualized with TMB One Component HRP Membrane Substrate, quenched with 2 M sulfuric acid and read spectrophotometrically at 450 nm.

[6] = biological target: T4, mouse IL-23 binding to mouse IL-23R (Mus musculus, UniProt P43432+Q9EQ14); test: Mouse IL23/IL23R huFc ELISA; conditions: data not shown
T4 sequence (Q9EQ14 22-196): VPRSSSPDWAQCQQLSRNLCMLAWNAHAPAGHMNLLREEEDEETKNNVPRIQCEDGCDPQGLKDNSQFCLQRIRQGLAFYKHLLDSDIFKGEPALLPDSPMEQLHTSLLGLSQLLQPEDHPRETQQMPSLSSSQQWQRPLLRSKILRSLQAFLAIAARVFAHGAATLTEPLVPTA
T4 sequence (P43432 23-335): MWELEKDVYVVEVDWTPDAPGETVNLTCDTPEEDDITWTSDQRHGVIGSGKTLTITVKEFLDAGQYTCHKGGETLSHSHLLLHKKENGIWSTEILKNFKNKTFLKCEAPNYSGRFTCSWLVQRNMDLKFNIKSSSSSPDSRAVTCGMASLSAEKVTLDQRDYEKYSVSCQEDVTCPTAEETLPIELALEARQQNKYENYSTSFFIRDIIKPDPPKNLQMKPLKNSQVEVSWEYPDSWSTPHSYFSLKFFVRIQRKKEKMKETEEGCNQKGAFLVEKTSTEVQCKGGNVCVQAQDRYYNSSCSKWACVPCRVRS
Experimental: Certain peptides were tested to identify peptides that inhibit the binding of IL-23 to human IL-23R or mouse IL-23R, and inhibit IL-23/IL-23R functional activity, as described below. Each of these peptides comprised a disulfide bond between X5 and X34, except for Peptide 1, which comprises a disulfide bond between X4 and X33.

[7] = test system: human IL-23-dependent release of IL-17 from mouse splenocytes; test: Mouse splenocyte assay; assay type: cell-based; conditions: IL-17A release; IL-23 20 ng/mL; 67 hours
Experimental: Frozen mouse splenocytes (Hooke Lab), suspended in RPMI Medium 1640 (Life technologies #22400-089) supplemented with 10% heat inactivated FBS (Life technologies #16140-071), 1×MEM Non-Essential Amino Acid Solution (Life technologies #11140-050), 1 mM sodium pyruvate (Life technologies #11360-070), 100 units of Penicillin-Streptomycin (Life technologies #15140-122, 0.05 mM 2-mercaptoethanol (Life technologies #21985-023) and recombinant human IL-2 (R&D Systems #202-IL-010/CF), were seeded at 4×10E5 cells/well in a 96 well tissue culture plate. Serial dilutions of test peptides and IL-23 at a final concentration of 20 ng/mL were preincubated in a separate assay plate for 60 minutes at 37° C. in a 5% CO2 humidified incubator. Preincubated samples were then added to the culture plate containing splenocytes and incubated for an additional 67 hours at 37° C. in a 5% CO2 humidified incubator. A sandwich ELISA kit for mouse IL17A (Biolegend #436204) was used to measure the amount of IL-17A in each sample supernatants, according to manufacturer's instructions.

CC[C@H](C)[C@@H]1NC(=O)[C@H](CCCCN)NC(=O)[C@H](C)NC(=O)[C@H](Cc2c[nH]c3ccccc23)NC(=O)[C@H](CCCNC(=N)N)NC(=O)[C@H](CCC(N)=O)NC(=O)[C@H](CCC(=O)O)NC(=O)[C@H](CCC(N)=O)NC(=O)[C@H](CC(N)=O)NC(=O)[C@H](CC(C)C)NC(=O)[C@H](CC(N)=O)NC(=O)[C@@H]2CCCN2C(=O)[C@H](CC(=O)O)NC(=O)[C@H](C(C)C)NC(=O)CNC(=O)[C@H](C)NC(=O)[C@H](CCC(=O)O)NC(=O)[C@H](CO)NC(=O)[C@H](CCSC)NC(=O)[C@H](CCCNC(=N)N)NC(=O)[C@H](CCCNC(=N)N)NC(=O)[C@H](CC(C)C)NC(=O)[C@@H](NC(=O)[C@H](CCC(N)=O)NC(=O)[C@H](CCSC)NC(=O)[C@H](CC(N)=O)NC(=O)[C@H](Cc2ccccc2)NC(C)=O)CSSC[C@@H](C(N)=O)NC(=O)[C@H](CC(=O)O)NC(=O)[C@H](CC(=O)O)NC(=O)[C@H](CCSC)NC(=O)[C@H]([C@@H](C)CC)NC(=O)[C@H](CO)NC(=O)[C@H](CCCCN)NC1=O [Peptide 10] (Ac-FNMQCLRRMSEAGVDPNLNQEQRWAKIKSIMDDC-NH2; disulfide 5-34)
blocking of binding of IL-13 to IL-13Ra1 [1]: did not block
blocking of binding of IL-6 to IL-6R [2]: did not block
IC50 ([3]; competition binding, IL-23 at EC50): > 100 µM
blocking of binding of IL-23 to IL-12Rβ1 [3]: did not block
IC50 ([4]; competition binding, IL-12 at EC50, read-out: Human IL12/IL12Rβ1huFc ELISA): > 100 µM
blocking of binding of IL-12 to IL12Rβ1 ([4]; result in words): did not block
IC50 [5]: 1 to 10 µM
blocking of binding of mouse IL-23 to mouse IL-23R [6]: blocked
IC50 [7]: 1.6 µM

Ustekinumab: a humanized antibody that binds IL-23 (p40 subunit), approved for the treatment of psoriasis [reference compound]
blocking of binding of IL-23 to IL-12Rβ1 [3]: blocked
Mouse splenocyte assay [7]: 0.06 µg/mL
